Measurements as given in patent US20180071284A1, “PREVENTING OR TREATING VIRAL INFECTION BY INHIBITION OF THE HISTONE METHYLTRANSFERASE EZH1 OR EZH2” (The United States of America, as represented by the …, priority 2015, published 2018).
“Also recorded” adds a separate entry of the source.

Assays:
HSV-1 [1] = assay: HSV-1 cellular and nuclear entry (viral DNA in total and nuclear fractions of HFF cells); type: cell-based, herpes simplex virus 1 (HSV-1); details: compound 1 35 μM, compound 4 30 μM, 5-hrs pretreatment, HSV-1 2.0 PFU per cell 1.5-hrs
Experimental: HFF cells were treated with the EZH1/2 catalytic inhibitor compound 1 (35 μM), compound 4 (30 μM), or DMSO (vehicle) for 5-hrs. The HFF cells were then infected with HSV-1 (2.0 PFU per cell) for 1.5-hrs in the presence of the inhibitors or DMSO (vehicle). The levels of HSV viral DNA isolated from total and nuclear cellular fractions are expressed as ratios relative to DMSO (vehicle).

neutrophil (Ly6G) = assay: Neutrophil recruitment to the site of HSV infection in mouse eyes; type: in vivo, Balb/c mice; details: topical to the eyes, 30 μM twice daily, day 5
Experimental: The eyes of Balb/c mice were scarified and mock or infected with 2×10^5 pfu of HSV-1 (strain F) per eye. Beginning on day 0.5, the eyes of mice were treated either with EZH1/2 inhibitor (compound 4: 30 μM), acyclovir (ACV: 30 μM), or vehicle control twice daily. On day 5, the eyes were fixed in paraformaldehyde and tissue sections were co-stained with anti-HSV-1, anti-Ly6G (neutrophil), and DAPI.

HSV-1 [2] = assay: HSV-1 viral IE mRNA levels in infected Vero (IFN-β null, IRF3 deficient) cells; type: cell-based, herpes simplex virus 1 (HSV-1); details: 5-hrs pretreatment, HSV-1 2.0 PFU per cell
Experimental: HFF (wild-type) and Vero (IFN-β null, IRF3 deficient) cells were treated with the indicated concentration of EZH1/2 catalytic inhibitor (compound 1 or 4) or DMSO (vehicle) for 5-hrs. HFF and Vero cells were then infected with HSV-1 (2.0 PFU per cell) for 1.5-hrs in the presence of inhibitor or DMSO. The levels of HSV viral IE (ICP0, ICP4, ICP22, and ICP27) and cellular control (SP1 and TBP) mRNAs are expressed relative to cells treated with DMSO (vehicle).

HSV-1 [3] = assay: Removal of inhibitors prior to HSV-1 infection of HFF cells (mRNA levels); type: cell-based, herpes simplex virus 1 (HSV-1); details: washed, then infected
Experimental: HFF cells were treated with inhibitors targeting the catalytic SET domain (compound 1, 35 μM: EZH2; compound 2, 15 μM: EZH2 and EZH1; compound 4, 30 μM: EZH2), EED-EZH2 and EED-EZH1 (compound 3, 30 μM), or DMSO (control) for 5-hrs. Cells were then washed with phosphate buffered saline (PBS) and replaced with media with no inhibitors for the indicated time in FIGS. 21-24 prior to infection with HSV-1 (2.0 PFU per cell) for 1.5-hrs in the absence of inhibitors.

IFN-α, TNF-α, IL-8 mRNAs = assay: Cellular innate interferon signaling mRNAs in mock or HSV-1 infected HFF cells; type: cell-based, human; details: 30 μM, 5-hrs
Experimental: HFF cells were treated with EZH1/2 catalytic inhibitor compound 4 (30 μM) or DMSO for 5-hrs. HFF cells were then mock or infected with HSV-1 (2.0 PFU per cell) for 1.5-hrs in the presence of inhibitor or DMSO. The levels of HSV viral IE (ICP4 and ICP27), control (SP1), and cellular innate interferon signaling (IFN-α, TNF-α, IL-8) mRNAs are expressed as absolute levels (absolute copies).

HSV-1 [4] = assay: Mouse trigeminal ganglia explant reactivation model, viral yield titrated on Vero cells; type: cell-based, herpes simplex virus 1 (HSV-1); details: explant 48-hrs; compound 1 35 μM, compound 3 30 μM, compound 4 30 μM
Experimental: Trigeminal ganglia from HSV-1 latently infected mice were bisected. Half were explanted in media with control DMSO (vehicle), and the other half were explanted in media with ACV (100 μM), ML324 (50 μM), compound 1 (35 μM), compound 3 (30 μM), or compound 4 (30 μM) for 48-hrs to induce viral reactivation. Viral yields were determined by titrating on Vero cells. Each point represents the titer of one explanted trigeminal ganglia.

HSV-1 [5] = assay: Spread of HSV infection in HFF cells (UL29 staining); type: cell-based, herpes simplex virus 1 (HSV-1); details: HSV-1 MOI 0.01 for 8.5-hrs, then treated for 12.5-hrs (30 μM)
Experimental: HFF cells were mock or infected with HSV-1 (MOI 0.01) for 8.5-hrs to allow one round of the viral replication program. The HFF cells were then treated with EZH1/2 inhibitor (compound 1 or compound 4 at 30 μM), viral DNA polymerase inhibitor (ACV at 100 μM), or JMJD3 inhibitor (ML324 at 50 μM) for an additional 12.5-hrs. Cells were paraformaldehyde fixed, permeabilized, and stained for the viral E gene UL29 and actin. The viral E protein UL29 was used as a marker for the spread of viral infection.
HFF cells were mock or infected with HSV-1 (MOI 0.01) for 8.5-hrs to allow one round of the viral replication program. HFF cells were then treated with EZH1/2 (compound 1, compound 4), viral DNA polymerase (ACV), or JMJD3 (ML324) inhibitors for additional 12.5-hrs. Cells were paraformaldehyde fixed, permeabilized, and stained for the viral E gene UL29 and actin (Phalloidin). The viral E protein UL29 was used as a marker for the spread of viral infection.

[6] = system: cytokines, chemokines, and adhesion proteins involved in innate signaling; assay: RNA-seq analysis of explanted trigeminal ganglia from HSV-1 latently infected mice; type: cell-based; details: 30 μM, 12 hrs
Experimental: Trigeminal ganglia from HSV-1 latently infected mice were explanted in media with control DMSO (vehicle) or in media with compound 4 (30 μM) for 12 hrs. Total cellular RNA was isolated and RNA-seq analysis identified the induction of cytokines, chemokines, and adhesion proteins involved in innate signaling and recruitment of immune effector cells. The results are in Table 1 below, where changes in gene expression are expressed as ratios of compound 4 relative to vehicle.

HFF cells = assay: Microarray analysis of HFF cells; type: cell-based, human; details: 30 μM, 4-hrs
From the text: -[…] (2013), incorporated herein by reference). In normal fibroblast cells (as opposed to established cell lines or transformed cells lines), 41 genes are co-regulated by IFN (16%) and compound 4 treatment alone.

[7] = normal fibroblast cells data set

Compound: CC[C@H](C)n1cc(C)c2c(C(=O)NCc3c(C)cc(C)[nH]c3=O)cc(-c3ccc(N4CCNCC4)nc3)cc21 [compound 4, GSK126]
- HSV-1 viral entry (total and nuclear) (HSV-1 [1]): no impact
- neutrophil recruitment to the site of HSV infection (neutrophil (Ly6G)): Recruitment/infiltration of neutrophils
- antiviral activity (HSV IE mRNA) in Vero cells as compared to HFF (wild-type) cells (HSV-1 [2]): lack of antiviral activity
- HSV IE expression after removal of compound prior to infection (HSV-1 [3]; 5-hrs treatment (compound 1 35 μM, 2 15 μM, 3 30 μM, 4 30 μM)): recovery of HSV IE expression
- IL6 stimulation after removal of compound prior to infection (HSV-1 [3]; 5-hrs treatment): decrease in IL6 stimulation
- expression of innate antiviral signaling molecules IFN-α, TNF-α, and IL-8 (IFN-α, TNF-α, IL-8 mRNAs): induces the expression
- HSV reactivation from latency (viral yield per explanted trigeminal ganglia) (HSV-1 [4]): block HSV reactivation from latency
- spread of HSV infection to adjacent cells (UL29 marker) (HSV-1 [5]): block the spread of HSV to adjacent cells; also recorded: block the spread of HSV infection
- genes induced >2 fold that are co-regulated by IFN (Interferome), ganglia explants [6]: 33 genes
- share of genes induced >2 fold that are co-regulated by IFN (Interferome), ganglia explants [6]: 69%
- Fold Change (Cmpd. 4 relative to vehicle) ([6]; Gene CCL2 (Chemokines)): 2.23
- Fold Change (Cmpd. 4 relative to vehicle) ([6]; Gene CXCL1 (Chemokines)): 6.30
- Fold Change (Cmpd. 4 relative to vehicle) ([6]; Gene CXCL2 (Chemokines)): 5.11
- Fold Change (Cmpd. 4 relative to vehicle) ([6]; Gene CXCL3 (Chemokines)): 2.68
- Fold Change (Cmpd. 4 relative to vehicle) ([6]; Gene CXCL5 (Chemokines)): 3.78
- Fold Change (Cmpd. 4 relative to vehicle) ([6]; Gene G-CSF (Cytokines)): 6.16
- Fold Change (Cmpd. 4 relative to vehicle) ([6]; Gene GM-CSF (Cytokines)): 5.51
- Fold Change (Cmpd. 4 relative to vehicle) ([6]; Gene ICAM1 (Adhesion)): 2.51
- Fold Change (Cmpd. 4 relative to vehicle) ([6]; Gene IL6 (Cytokines)): 3.61
- Fold Change (Cmpd. 4 relative to vehicle) ([6]; Gene IL11 (Cytokines)): 2.16
- Fold Change (Cmpd. 4 relative to vehicle) ([6]; Gene LIF (Cytokines)): 2.66
- Fold Change (Cmpd. 4 relative to vehicle) ([6]; Gene SELE (Adhesion)): 3.86
- Fold Change (Cmpd. 4 relative to vehicle) ([6]; Gene SELP (Adhesion)): 3.16
- Fold Change (Cmpd. 4 relative to vehicle) ([6]; Gene VEGF-c (Cytokines)): 2.10
- genes induced >2 fold that are co-regulated by IFN (Interferome) (HFF cells): 212 genes
- genes induced greater than 2 fold relative to vehicle (microarray) (HFF cells): 252 genes
- pro-inflammatory pathways induced (Ingenuity Pathway Analysis) (HFF cells): IL6, IL17, TLR, HMGB1, and JAK/STAT signaling pathways
- share of genes induced >2 fold that are co-regulated by IFN (Interferome) (HFF cells): 84%
- genes co-regulated by IFN in normal fibroblast cells (HFF cells; [7]): 41 genes
- share of genes co-regulated by IFN in normal fibroblast cells (HFF cells; [7]): 16%
